Laboratory results taken from patent US11225653B2, “Methods and compounds for reducing threonyl-tRNA synthetase activity” (University of Vermont and State Agricultural College, priority 2012, dated 2022).
Entries after “also recorded” stand apart in the source; their conditions may differ.

Assays:
[1] = test system: chorioallantoic membrane (CAM); experiment: Chick chorioallantoic membrane (CAM) assay; assay type: in vivo, chicken; settings: purified protein applied daily to sponge, scored over 72 h
Procedure: Chick Chorioallantoic Membrane Assay-Fertilized chicken eggs (Sunrise Farms, Catskill, N.Y.) day 1-2 post-laying were incubated in a humidified incubator at 37° C. for 72 h. Cleaned eggs were cracked and plated in a sterile 10 cm^2 tissue culture-treated dish and incubated at 37° C. for another 7 days. On developmental day 10, 1 mm^3 sterile gelatin sponge pieces (Surgifoam®; Johnson & Johnson Wound Management, Somerville, N.J.) were placed within the outer one-third of the membrane between large vessels. 40 μg/ml human bFGF and 2 μg/mL human VEGF were used as pro-angiogenic control compounds; 100 μg/mL retinoic acid (Sigma-Aldrich, St. Louis, Mo.) diluted in phosphate-buffered saline (PBS) was used as an angiostatic control. All compounds were applied in 10 μl to the CAM every 24 h for 72 h. Images were taken using a Leica MZ6 stereomicroscope every 24 h. Compounds were scored according to a modified version of Intensity Scoring as previously described (Ribatti, Nico et al. 2006). Briefly, each experimental condition was given a blinded score from 0-5 based on the change in the extent of vessel convergence and formation in proximity to the sponge from day 0 to day 3. Total score is averaged individual experimental condition scores from at least 15 replicates.
Fertilized chicken embryos were cultured ex-ova and, starting at developmental day 10, agents were applied daily to gelfoam sponges on the CAM. Images were recorded daily over 72 h and scored blindly according to a modified version Intensity Scoring as previously described (Ribatti, Nico et al. 2006). Additional details regarding methods are provided in the Methods and Materials section of Example 1.

human LARS = target: T1, human LARS (Homo sapiens, UniProt Q9P2J5); experiment: LARS steady state ATPase activity; assay type: biochemical; settings: 1 μM human LARS
T1 construct: His6 (N); made in house; host or cells: E. coli, plasmid pPROEX hTb-LARS
Procedure: LARS steady state ATPase activity was determined using the same procedure as for TARS aminoacylation with the following modifications. […] ATP (PerkinElmer, Waltham, Mass.) was added. Reactions were incubated for 3 minutes at 37° C. and initiated with the addition of 1 μM human LARS. At various time points 5 μl aliquots were quenched in 45 μl of 500 mM sodium acetate and 0.1% sodium dodecyl sulfate. For each sample, 1 μl was spotted onto a CCM cellulose PEI F plates (EMD) and resolved via thin-layer chromatography in 0.75 M potassium phosphate buffer mobile phase.

T1 sequence (Q9P2J5 whole entry): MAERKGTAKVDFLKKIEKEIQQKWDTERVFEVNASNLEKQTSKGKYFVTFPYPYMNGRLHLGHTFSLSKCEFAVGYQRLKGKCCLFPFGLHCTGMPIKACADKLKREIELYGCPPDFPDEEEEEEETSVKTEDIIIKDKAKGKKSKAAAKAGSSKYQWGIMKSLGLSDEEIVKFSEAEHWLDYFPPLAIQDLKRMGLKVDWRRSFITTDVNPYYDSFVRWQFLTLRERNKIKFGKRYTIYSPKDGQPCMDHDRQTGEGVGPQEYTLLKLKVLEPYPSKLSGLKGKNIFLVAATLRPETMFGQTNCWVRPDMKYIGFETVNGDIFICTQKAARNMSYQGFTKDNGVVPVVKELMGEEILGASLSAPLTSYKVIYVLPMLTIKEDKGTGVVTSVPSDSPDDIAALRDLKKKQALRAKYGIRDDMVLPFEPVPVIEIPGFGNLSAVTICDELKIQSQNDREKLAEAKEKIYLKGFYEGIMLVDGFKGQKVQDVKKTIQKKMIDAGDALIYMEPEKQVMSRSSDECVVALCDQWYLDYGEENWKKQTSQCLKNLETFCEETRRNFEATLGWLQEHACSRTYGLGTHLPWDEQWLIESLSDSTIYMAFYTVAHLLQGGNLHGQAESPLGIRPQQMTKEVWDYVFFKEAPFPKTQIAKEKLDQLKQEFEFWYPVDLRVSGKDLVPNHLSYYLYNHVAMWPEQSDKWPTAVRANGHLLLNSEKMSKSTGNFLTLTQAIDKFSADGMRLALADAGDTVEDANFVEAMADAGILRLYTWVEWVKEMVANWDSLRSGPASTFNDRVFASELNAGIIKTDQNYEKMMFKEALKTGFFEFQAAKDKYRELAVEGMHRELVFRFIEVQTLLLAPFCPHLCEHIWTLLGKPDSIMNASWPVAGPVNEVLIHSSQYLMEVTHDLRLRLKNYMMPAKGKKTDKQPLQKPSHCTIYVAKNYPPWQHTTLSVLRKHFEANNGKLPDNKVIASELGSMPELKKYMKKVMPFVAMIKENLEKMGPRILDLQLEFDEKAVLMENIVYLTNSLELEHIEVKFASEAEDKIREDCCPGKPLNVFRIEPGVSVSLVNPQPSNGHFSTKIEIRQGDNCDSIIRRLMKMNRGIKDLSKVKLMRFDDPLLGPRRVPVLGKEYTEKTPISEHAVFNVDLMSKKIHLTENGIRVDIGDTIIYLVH

LARS: N-terminal His6-tagged human leucyl tRNA synthetase
vessel formation / vascularization on the CAM after applied protein [1]: no observable effect on vascularization; also recorded: has no effect on angiogenesis | enzyme activity as conversion of 32P-ATP to AMP (human LARS): exhibits enzyme activity
